What was measured:
[1] = tested on: Serotonin aptamer (DNA, aptamer) CGACTGGTAGGCAGATAGGGGAAGCTGATTCGATGCGTGGGTCG; assay: SPR
[2] = tested on: Serotonin pH-sensitive aptamer (DNA, aptamer) CGACTGGTAGGCAGATAGGGGAAGCTGATTCGATGCGTGGGTCGTTTCGACCTTTCCAGC; assay: CNT FET; settings: 10 nM target; released at acidic pH
[3] = tested on: Dopamine aptamer (DNA, aptamer) CGACGCCAGTTTGAAGGTTCGTTCGCAGGTGTGGAGTGACGTCG; assay: CNT FET sensor array; settings: PC12 culture medium; highest concentration tested 10 nM
[4] = tested on: Histamine aptamer (DNA, aptamer) AGCTCCAGAAGATAAATTACAGGGAACGTGTTGGTTGCGGTTCTTCCGATCTGCTGTGTTCTCTATCTGTGCCATGCAACTAGGATACTATGACCCCGG; assay: CNT FET sensor array; settings: PC12 culture medium; highest concentration tested 10 nM
[5] = tested on: Glutamate aptamer (DNA, aptamer) GCATCAGTCCACTCGTGAGGTCGACTGATGAGGCTCGAT; assay: CNT FET sensor array; settings: PC12 culture medium; highest concentration tested 10 nM
[6] = tested on: Histamine aptamer (DNA, aptamer) AGCTCCAGAAGATAAATTACAGGGAACGTGTTGGTTGCGGTTCTTCCGATCTGCTGTGTTCTCTATCTGTGCCATGCAACTAGGATACTATGACCCCGG; assay: SPR
[7] = tested on: Histamine pH-sensitive aptamer (DNA, aptamer) AGCTCCAGAAGATAAATTACAGGGAACGTGTTGGTTGCGGTTCTTCCGATCTGCTGTGTTCTCTATCTGTGCCATGCAACTAGGATACTATGACCCCGGTTTCCGGGGTTTTTGGGGCC; assay: CNT FET; settings: 10 nM target; released at acidic pH
[8] = tested on: Serotonin aptamer (DNA, aptamer) CGACTGGTAGGCAGATAGGGGAAGCTGATTCGATGCGTGGGTCG; assay: CNT FET sensor array; settings: PC12 culture medium; highest concentration tested 10 nM
[9] = tested on: Dopamine aptamer (DNA, aptamer) CGACGCCAGTTTGAAGGTTCGTTCGCAGGTGTGGAGTGACGTCG; assay: SPR
[10] = tested on: Dopamine pH-sensitive aptamer (DNA, aptamer) CGACGCCAGTTTGAAGGTTCGTTCGCAGGTGTGGAGTGACGTCGTTTCGACGCTTTAGCAGC; assay: CNT FET; settings: 0.1x PBS (1x: 137 mM NaCl, 2.7 mM KCl); pH 7.4; 10 nM dopamine; released at acidic pH
[11] = tested on: Glutamate aptamer (DNA, aptamer) GCATCAGTCCACTCGTGAGGTCGACTGATGAGGCTCGAT; assay: SPR
[12] = tested on: Glutamate pH-sensitive aptamer (DNA, aptamer) GCATCAGTCCACTCGTGAGGTCGACTGATGAGGCTCGATTTTATCGATTTAGCTA; assay: CNT FET; settings: 10 nM target; released at acidic pH

Kd [1] [nM]	binding [2]	binding [3]	binding [4]	binding [5]	Kd [6] [nM]	binding [7]	binding [8]	Kd [9] [nM]	binding [10]	Kd [11] [nM]	binding [12]	SMILES
10.5	yes	no	no	no								NCCc1c[nH]c2ccc(O)cc12
		no		no	15	yes	no					NCCc1c[nH]cn1
			no	no			no	20	yes			NCCc1ccc(O)c(O)c1
		no	no				no			293	yes	N[C@@H](CCC(=O)O)C(=O)O

From article PMC12376627 (2025)
